Results from paper PMC7747594, “Protease-activated receptor-2 ligands reveal orthosteric and allosteric mechanisms of receptor inhibition” (Communications Biology, 2020).
pEC50, pIC50: −log10 of the molar value. Several values for one entry are separate records, joined by “and”; a condition that tells them apart may be missing. Equal entries are not always repeated. Where two headings read alike, the source gives them in different places. Each block holds one compound with its values, some of them ahead of it. Square brackets hold non-standard residues; d marks the D form. Peptide text beside a SMILES is read from it. * marks the point of attachment. Orn = NCCC[C@H](N)C(=O)O; 2Furoyl = O=C(c1ccco1)*

What was measured:
[1] = molecular target: T1, hPAR2 (Homo sapiens, UniProt P55085); assay: Schild and allosteric model analysis of Ca^2+ mobilisation in CHO-hPAR2 cells (2f-LIGRL-NH2 or trypsin); type: cell-based; parameters: key to Relative activity: (Emax·EC50')/(Emax'·EC50), Hill slope held at 1; Emax: scale not given here
T1 sequence (P55085 26-397): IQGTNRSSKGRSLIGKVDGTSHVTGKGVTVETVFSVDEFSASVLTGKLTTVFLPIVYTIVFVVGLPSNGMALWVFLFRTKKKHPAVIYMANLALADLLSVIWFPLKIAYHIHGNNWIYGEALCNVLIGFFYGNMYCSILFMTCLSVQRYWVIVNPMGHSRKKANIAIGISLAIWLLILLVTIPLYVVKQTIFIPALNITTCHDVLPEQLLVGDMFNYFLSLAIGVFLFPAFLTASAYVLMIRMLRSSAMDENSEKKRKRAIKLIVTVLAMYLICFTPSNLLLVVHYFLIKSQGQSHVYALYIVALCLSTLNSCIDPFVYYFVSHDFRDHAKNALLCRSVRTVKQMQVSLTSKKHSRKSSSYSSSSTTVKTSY
Protocol: (§1) Cells were loaded with Fluo-8 NW calcium dye (AAT Bioquest) for 30 min at 37 °C before compounds in Hank’s balanced salt solution (HBSS, ThermoFisher Scientific) with 20 mM HEPES (ThermoFisher Scientific), 0.1% bovine serum albumin (BSA, Sigma) and 0.5% DMSO were added and simultaneously evaluated for changes in intracellular [Ca^2+] using FLIPR TETRA (Molecular Devices) to detect agonism. For each concentration, the difference between the maximum peak Ca^2+ response and baseline response is reported. […] Antagonism experiments were also carried out on 1321N1-PAR2[WT], 1321N1-PAR2[F154A], and 1321N1-PAR2[G157C] as described. Experiments with trypsin in 1321N1-hPAR2 cells were performed in the presence of 1 µM Vorapaxar (Chemtronica) to remove any interference of PAR1 activity. […] Antagonism experiments for CHO-hPAR2 and HT-29 cells were performed in 96-well plates at 30,000 cells/well. Cells were loaded with Fluo-3 AM calcium dye (Sigma-Aldrich) for 60 min at 37 °C in HBSS with 1% FBS, 0.2% pluronic acid, 20 mM HEPES and 2.5 mM probenecid prior to the addition of antagonist. The antagonist was pre-incubated for 60 min at 37 °C followed by the addition of bovine trypsin (30 nM) at EC80. Intracellular [Ca^2+] flux was measured using FLIPR TETRA (Molecular Devices) and the difference between the maximum peak Ca^2+ response and baseline response is reported.
(§2) Binding data were analysed using the One site – Fit Ki model in GraphPad Prism 8 (GraphPad Software) to determine binding affinity. Pharmacology in vitro potency data was analysed with a 4-parameter logistic fit using the equation y = Bottom + (Top − Bottom)/[…] where y is the response, x is the 10-logarithm of the drug concentration, Bottom is no response and Top is full response in GraphPad Prism 8 or Genedata Screener (Genedata). pEC50 and pIC50 data are presented as mean ± standard error of the mean (s.e.m.) derived from the number of independent experiments stated. Schild slope analysis was calculated using Graphpad Prism 8 Gaddum/Schild EC50 global fitting (shared model parameters between all data sets) competitive model. […] Schild slope quantifies the shifts in agonist response in the presence of antagonist, a Schild slope of 1 indicates the antagonist is competitive and extra-sum-of-squares F-test (p < 0.05) was used to compare the calculated Schild slope against a hypothetical Schild slope of 1. […] The relative activity was calculated using (EmaxEC50’)/(Emax’EC50) with the Hill slope help constant at 1. EC50’ and Emax’ denote the EC50 and Emax in the absence of allosteric modulator, while EC50 and Emax denote those measured in the presence of allosteric modulator. When the Hill slope = 1, the relative activity plot approaches an asymptote corresponding to the estimate of the γ value.

[2] = molecular target: T1, hPAR2; assay: Europium-tagged competition binding assay against Eu-tagged-2f-LIGRLO(dtpa)-NH2 on CHO-hPAR2 cells; parameters: expressed in transfected cells; host or cells: Flp-In CHO; details: determined with Eu-tagged-2f-LIGRLO(dtpa)-NH2; read-out: equilibrium dissociation constant pKA / pKB (converted)
Protocol: CHO-hPAR2 cells were seeded overnight in 384-well plate at 2.5 × 10^4 cells/well and blocked with 2% BSA for 60 min. […] Cells were washed 3× with PBS supplemented with 20 µM EDTA, 0.01% Tween and 0.2% BSA followed by addition of DELFIA Enhancement Solution (Perkin Elmer) for 90 min. Time-resolved fluorescence was measured with PHERAstar FS reader (BMG Labtech).
as §2

[3] = molecular target: T2, rat PAR2 (Rattus norvegicus, UniProt Q63645); assay: Ca^2+ flux assay, inhibition of SLIGRL-NH2 activation in rat KNRK cells; type: cell-based; details: for IC50: SLIGRL-NH2, rat PAR2 in KNRK cells, mean ± s.e.m., read-out: Ca^2+ flux (rPAR2) pIC50 (converted)
T2 construct: a rat KNRK cell line with endogenous expression of rat PAR2; host or cells: rat KNRK cells
T2 sequence (Q63645 26-397): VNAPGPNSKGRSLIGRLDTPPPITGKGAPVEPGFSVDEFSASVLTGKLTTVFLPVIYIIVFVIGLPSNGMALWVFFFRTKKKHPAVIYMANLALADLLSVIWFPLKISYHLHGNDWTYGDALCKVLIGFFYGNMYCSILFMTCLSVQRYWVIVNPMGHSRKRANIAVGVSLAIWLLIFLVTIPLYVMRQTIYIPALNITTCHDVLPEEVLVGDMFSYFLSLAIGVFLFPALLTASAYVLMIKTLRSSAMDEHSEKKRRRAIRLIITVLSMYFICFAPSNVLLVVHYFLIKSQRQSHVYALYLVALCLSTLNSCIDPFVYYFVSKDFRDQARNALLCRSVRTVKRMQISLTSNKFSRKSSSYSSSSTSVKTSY

[4] = molecular target: T1, hPAR2; assay: Ca^2+ flux assay (FLIPR), inhibition of SLIGRL-NH2 activation in 1321N1-hPAR2 cells; type: cell-based; details: SLIGRL-NH2, 1321N1-hPAR2 cells; mean ± s.e.m.; read-out: Ca^2+ flux (hPAR2) pIC50 (converted)
Protocol: as §1, §2

[5] = molecular target: T1, hPAR2; assay: IP1 HTRF assay, inhibition of SLIGRL-NH2 in 1321N1-hPAR2 cells; type: cell-based; details: SLIGRL-NH2, 1321N1-hPAR2 cells; mean ± s.e.m.; read-out: IP1 (hPAR2) pIC50 (converted)
Protocol: Inhibition of PAR2-induced inositol-1-phosphate (IP1) production was measured in 1321N1-hPAR2 cells using IP-One Gq HTRF assay kit (Cisbio). […] Next, EC80 of SLIGRL-NH2 (70 µM) supplemented with 50 mM LiCl was added and incubated for 60 min at 37 °C. Detection of IP1 production was performed according to the manufacturer’s protocol and HTRF was measured using PHERAstar (BMG LabTech). Data were normalised to [IP1] using a standard curve.
as §2

[6] = molecular target: T1, hPAR2; assay: pERK1/2 HTRF assay, inhibition of SLIGRL-NH2 in U2OS-hPAR2 cells; type: cell-based; details: SLIGRL-NH2, U2OS-hPAR2; mean ± s.e.m.; read-out: pERK1/2 (hPAR2) pIC50 (converted)
Protocol: Phosphorylation of ERK1/2 was measured in U2OS-hPAR2 cells using Phospho-ERK1/2 (Thr202/Tyr204) assay kit (64ERKPEH Cisbio) and the 2 plate manufacturer’s protocol with the following modifications. Cells were seeded in McCoy’s 5A media containing 10% FBS at 15,000 cells per well in 384-well plates and incubated overnight at 37 °C, 5% CO2. Antagonist compounds (30 µM–1 nM) were incubated with the cells for 30 min prior to the addition of agonist SLIGRL-NH2 (10 µM) at EC80 and further incubation for 5 min at 37 °C. The supernatant was removed from the wells and lysis buffer was added to the cells and incubated with shaking at room temperature for 30 min. The cell lysate was transferred into a small-volume 384-well plate containing detection antibodies and incubated for 4 h at room temperature in the dark. Plates were read for HTRF signal on PHERAstar (BMG LabTech). In addition, phosphorylation of ERK1/2 was measured in CHO-hPAR2 using AlphaLISA SureFire Ultra pERK1/2 (Thr202/Tyr204) (Perkin Elmer). Cells were seeded at a density of 2000 cells per well in a 384-well proxiplate and incubated overnight. […] After incubation, cell lysis buffer was added with shaking for 30 min. Antibodies and beads were added and incubated for 4 h at room temperature. AlphaLISA signal was measured using a PHERAstar (BMG LabTech).
as §2

[7] = molecular target: T1, hPAR2; assay: β-arrestin-2 recruitment assay, inhibition of SLIGRL-NH2 in U2OS-hPAR2 cells; type: cell-based; details: SLIGRL-NH2, U2OS-hPAR2; mean ± s.e.m.; read-out: β-arrestin (hPAR2) pIC50 (converted)
Protocol: β‐Arrestin-2 recruitment was measured in U2OS-hPAR2 cells using the DiscoverX assay kit, according to the manufacturer’s instructions. Briefly, cells were seeded in McCoy’s 5A media containing 10% FBS at 4000 cells per well in 384-well plates and incubated overnight at 37 °C, 5% CO2. Antagonist compounds (30 µM–1 nM) were incubated with the cells for 30 min prior to the addition of agonist SLIGRL-NH2 (10 µM) at EC80 and further incubation for 90 min at 37 °C. Working detection solution (12 µl) was then added to each well, incubated at room temperature in the dark for 60 min and the chemiluminescence signal read on the EnVision microplate reader (Perkin Elmer).
as §2

[8] = molecular target: T1, hPAR2; assay: Ca^2+ flux assay, inhibition of trypsin activation in 1321N1-hPAR2 cells (with 1 µM Vorapaxar); type: cell-based; details: 1321N1-hPAR2 cells, 1 µM Vorapaxar
[9] = system: parental 1321N1 cells; assay: Ca^2+ flux assay, agonist mode, parental 1321N1 cells; type: cell-based; parameters: Ca2+ response (Fig 2c), individual replicate values: unit not given here; details: control
Protocol: as §1

[10] = agonist in presence of AZ3451 0.1 µM
[11] = agonist in presence of AZ3451 0.3 µM
[12] = agonist in presence of AZ3451 1 µM
[13] = agonist in presence of AZ3451 3 µM
[14] = agonist in presence of AZ3451 10 µM
[15] = agonist in presence of AZ3451 30 µM, CHO-hPAR2, Ca^2+

Compound: CC[C@H](C)[C@H](NC(=O)[C@H](CC(C)C)NC(=O)c1ccco1)C(=O)NCC(=O)N[C@@H](CCCNC(=N)N)C(=O)N[C@@H](CC(C)C)C(N)=O [2f-LIGRL-NH2, reference compound]
pEC50 [1]: 6.60

Compound: CC[C@H](C)[C@H](NC(=O)[C@H](CC(C)C)NC(=O)c1ccco1)C(=O)NCC(=O)N[C@@H](CCCN=C(N)N)C(=O)N[C@@H](CC(C)C)C(=O)N[C@@H](CCCN)C(N)=O [2f-LIGRLO-NH2, reference compound] (2Furoyl-LIGRL[Orn]-NH2)
Kb [2]: 794 nM

Compound: CC[C@H](C)[C@H](NC(=O)[C@H](CC1CCCCC1)NC(=O)c1ccno1)C(=O)NCc1cccc(C(=O)N2CCC(CN)CC2)c1 [GB110, reference compound]
Ca2+ response (Fig 2c), individual replicate values ([9]; [compound],M -4.30103): 2.5854 and 0.2936 and 4.934 and 1.6114
Ca2+ response (Fig 2c), individual replicate values ([9]; [compound],M -4.77815): 2.299 and 3.846 and -3.259
Ca2+ response (Fig 2c), individual replicate values ([9]; [compound],M -5.25527): 4.705 and 2.815 and -0.222 and 3.388
Ca2+ response (Fig 2c), individual replicate values ([9]; [compound],M -5.73239): 1.44 and 1.382
Ca2+ response (Fig 2c), individual replicate values ([9]; [compound],M -6.20952): 3.273 and 1.783 and 1.382 and 0.4082
Ca2+ response (Fig 2c), individual replicate values ([9]; [compound],M -6.68664): 2.872 and -6.524
Ca2+ response (Fig 2c), individual replicate values ([9]; [compound],M -7.16376): -2.227 and 0.1217 and -2.055 and -7.498
Ca2+ response (Fig 2c), individual replicate values ([9]; [compound],M -7.64088): -2.514 and 3.502 and -1.826 and -6.754
Ca2+ response (Fig 2c), individual replicate values ([9]; [compound],M -8.118): -3.774 and -3.545 and -0.5085
Ca2+ response (Fig 2c), individual replicate values ([9]; [compound],M -8.59512): -10.4777 and -3.774 and -5.436 and -3.201

Compound: Trypsin
Emax ([1]; agonist alone, AZ3451 0 µM): 102
Relative activity ([1]; agonist alone, AZ3451 0 µM): 1
pEC50 ([1]; agonist alone, AZ3451 0 µM, read-out: EC50): 8.22
Emax [1, 10]: 96
Relative activity [1, 10]: 0.43
Emax [1, 11]: 90
Relative activity [1, 11]: 0.28
Emax [1, 12]: 90
Relative activity [1, 12]: 0.20
Emax [1, 13]: 89
Relative activity [1, 13]: 0.17
Emax [1, 14]: 74
Relative activity [1, 14]: 0.12
Emax [1, 15]: 61
Relative activity [1, 15]: 0.09

Results, then the compound that gave them:

pIC50 [3]: 5.50
Compound: CCc1ccc2c(F)ccc(C(O)c3ncc[nH]3)n12 (stereo not shown) [AZ0107]

IC50 [4]: 7.94 nM
IC50 [3]: 5.01 nM
IC50 [5]: 79.4 nM
IC50 [6]: 200 nM
IC50 [7]: 63.1 nM
shape of inhibition of trypsin-induced Ca^2+ mobilisation [8]: biphasic inhibition curves
Compound: C[C@@H](C1CCOCC1)n1c(-c2cc3c(cc2Br)OCO3)nc2cc(C(=O)Nc3ccc(C#N)cc3)ccc21 [AZ7126]

IC50 [4]: 20 nM
IC50 [3]: 7.94 nM
IC50 [5]: 302 nM
IC50 [6]: 1260 nM
IC50 [7]: 380 nM
shape of inhibition of trypsin-induced Ca^2+ mobilisation [8]: biphasic inhibition curves
Compound: C[C@@H](C1CCCCC1)n1c(-c2cc3c(cc2Br)OCO3)nc2cc(C(=O)Nc3ccccc3)ccc21 [AZ8935]
